Reference: patent US20080311657A1, “Killing Human Lymphoma and Leukemia Cancer Cells and Tcr-Activated Normal Human Cells By Dopamine D1r Agonists” (priority 2005, published 2008)
Where “and” joins values, the source holds several entries; their conditions need not be identical. Equal entries are not always repeated. Entries after “also recorded” stand apart in the source; their conditions may differ.

Assays:
[1] = test system: Human T-cell leukemia (Jurkat) cells; experiment: Number of living cells counted by flow cytometry (FACSort) after D1R agonist; type: cell-based; conditions: added four times during 1 hour, counted 3 days later
Description: Afterwards, the microtiter plates were placed in an incubator (37° C., humidified incubator, 5% CO2) for 3 days. Then, the number of living cells was evaluated by flow cytometry (the cells were counted by FACsort for a fixed time length of 1 min, in which 100 microliter of each sample was tested). Of note, A 77636 hydrochloride is an orally-active D1R agonist, according to the manufacturer (Tocris).
Afterwards, the microtiter plates were placed in an incubator (37° C., humidified incubator, 5% CO2) for 3 days. Then, the number of living cells was evaluated by flow cytometry (the cells were counted by FACsort for a fixed time length of 1 min, in which 100 microliter of each sample was tested).
(§1) The experiment was designed to test the effect of exposing the cells to the D1R agonist for 1 min, 15 min, 1 hr or 72 hr. Thus, 1 min, or 15 min or 1 hr after the addition of the D1R agonist, the corresponding cells were transferred into tubes, centrifuged (1000 rpm for 10 min); and the supernatant was removed. […] Thus, its medium was not replaced, and these cells and remained as such in the incubator for 72 hr. At the end of the 72 hr incubation, the number of living cells was evaluated by flow cytometry (the cells were counted by FACsort for a fixed time length of 1 min, in which 100 microliter of each sample was tested).
(§2) Cell viability was tested afterwards.
(§3) For this purpose, the Jurkat T-cell leukemia line, the HuT-78 human T-lymphoma (cutaneous “Sezary” T-lymphoma) line, and the K-562 human Chronic-Myeloid Leukemia (CML) and Daudi Human B-lymphoma (Burkitt's lymphoma) lines were seeded in tissue culture wells (0.5 million cells/0.5 ml/well).
(§4) Cell survival/death was evaluated 3 days later by counting the number of living cells, using flow cytometry.

[2] = test system: Human chronic myelogenous leukemia cells (CML) (K-562); experiment: as above; type: cell-based; conditions: added four times during 1 hour, counted 3 days later
Description: (§5) Human chronic myelogenous leukemia cells (CML) (K-562) were seeded in 96 well plates (0.5 ml per well of 0.5 million cells/ml) and A 77636 hydrochloride was added and diluted 1:00 into the wells at starting concentrations of 10^−1M-10^−4M, so that the final concentration range tested was 10^−3M-10^−6M. Afterwards, the microtiter plates were placed in an incubator (37° C., humidified incubator, 5% CO2) for 3 days. Then, the number of living cells was evaluated by flow cytometry (the cells were counted by FACsort for a fixed time length of 1 min, in which 100 microliter of each sample was tested).
as §5, with “68930” for “77636”
as §5, with “SKF 38393 hydrobromide” for “A 77636 hydrochloride”
as §1, with “Human chronic myelogenous leukemia cells (CML) (K-562) were seeded in 96 well plates (0.5 ml per well of 0.5 million cells/ml) and A 77636 hydrochloride was added and diluted 1:00 into the wells, at a fixed starting concentration of 10^−2M, so that the final concentration tested was 10^−4M. The” for “The”, “min),” for “min);”
as §2, §3, §4
The effect of dopamine itself (that can of course activate all its D1R-5 receptors) was also tested. All of these molecules were tested at a similar concentration (10^−4 M). […] The specificity and restriction of the effect to the D1R is also seen in Tables 7 and 8.

[3] = test system: Human Burkitt's B-Cell Lymphoma (Daudi); experiment: Cell death by LDH release (CytoTox 96); type: cell-based
Description: as §2

[4] = test system: Human T-cell leukemia (Jurkat); experiment: Cell death by LDH release (CytoTox 96); type: cell-based; conditions: FDM 10^−4M-10^−12M, added four times during 1 hour
Description: as §2

[5] = test system: TCR-activated normal human T-cells; experiment: Cell death by LDH release (CytoTox 96); type: cell-based; conditions: FDM 10^−4M-10^−10M, added four times during 1 hour; methanesulfonate
Description: Non-tissue culture treated 24-well plates (Falcon, Franklin Lakes, N.J.) were coated overnight at 4° C. with anti-CD3 and anti-CD28 monoclonal antibodies (mabs) (BD Pharmingen, San Jose, Calif.); ([…] in PBS). The wells were then washed with PBS, blocked for 1 hour at 37° C. (PBS/1% BSA), and washed again. The freshly purified normal human T-cells were resuspended in their respective fresh media and seeded in the anti-CD3/CD28 coated wells (1×10^6 per well), and the plates were incubated for 72 hours (37° C., humidified incubator, 5% CO2). Then, the cells and their media were collected from each well, transferred into 50 ml tubes, centrifuged (1200 rpm, 10 minutes) and both the TCR-activated cells and their culture media were collected and transferred into clean separate tubes.
as §2

[6] = test system: Human cutaneous Sezary T-lymphoma cells (HuT-78); experiment: Number of living cells counted by flow cytometry (FACSort) after D1R agonist; type: cell-based; conditions: added four times during 1 hour, counted 3 days later
[7] = test system: Human T-Cell Lymphoma (HuT-78); experiment: Cell death by LDH release (CytoTox 96); type: cell-based; conditions: FDM 10^−4M-10^−12M, added four times during 1 hour
[8] = test system: Human Chronic Myeloid Leukemia (CML, K-562); experiment: Cell death by LDH release (CytoTox 96); type: cell-based; conditions: FDM 10^−4M-10^−12M, added four times during 1 hour
[9] = patients receiving the 48 hour FDA-approved infusion; cited from earlier work
[10] = test system: Human Chronic Myeloid Leukemia (CML, K-562); experiment: Cell death by LDH release (CytoTox 96); type: cell-based
Description: as §2
(§6) Tables 3 and 4 show results of experiments designed primarily for studying the kinetics of the effect (herein fenoldopam hydrobromide was tested only at a concentration range of 10^−4 M-10^−6 M), and indicate that already after 1 minute of fenoldopam hydrobromide addition, there is an increased LDH. Yet, the extent of death increased gradually with time (10, 30 and 60 minutes), and after 1 hour the cancer cells released dramatic levels of LDH, indicating massive cell death.

[11] = test system: Human T-Cell Lymphoma (HuT-78); experiment: Cell death by LDH release (CytoTox 96); type: cell-based
Description: as §2, §6

[12] = test system: α2-adrenoceptors; conditions: cited from earlier work
[13] = test system: D2-like receptors; conditions: cited from earlier work
[14] = test system: α1 adrenoceptors; conditions: cited from earlier work
[15] = test system: β adrenoceptors; conditions: cited from earlier work
[16] = test system: 5HT1 receptors; conditions: cited from earlier work
[17] = test system: 5HT2 receptors; conditions: cited from earlier work
[18] = test system: muscarinic receptors; conditions: cited from earlier work

Structure (SMILES): CS(=O)(=O)O.Oc1ccc(C2CNCCc3c2cc(O)c(O)c3Cl)cc1 (stereo not shown) [FDM, 6-chloro-2,3,4,5-tetrahydro-1-(4-hydroxyphenyl)-[1H]-3-benzazepine-7,8-diol methanesulfonate]
- % Dead Cells ([1]; FDM 10^−4M): ~100%
- No. of Living Cells ([1]; FDM 10^−4M): 4
- % Dead Cells ([1]; FDM 10^−6M): 18%
- No. of Living Cells ([1]; FDM 10^−6M): 15938
- No. of Living Cells ([1]; FDM 10^−8M): 7451
- % Dead Cells ([1]; FDM 10^−8M, methanesulfonate): 62%
- % Dead Cells ([1]; FDM 10^−10M): 52%
- No. of Living Cells ([1]; FDM 10^−10M): 9472
- % Dead Cells ([1]; FDM 10^−12M): 46%
- No. of Living Cells ([1]; FDM 10^−12M): 10568
- % Dead Cells ([2]; FDM 10^−4M): 100%
- No. of Living Cells ([2]; FDM 10^−4M): 21
- % Dead Cells ([2]; FDM 10^−6M): 34%
- No. of Living Cells ([2]; FDM 10^−6M): 18680
- No. of Living Cells ([2]; FDM 10^−8M): 21137
- % Dead Cells ([2]; FDM 10^−8M, methanesulfonate): 25% and 26%
- % Dead Cells ([2]; FDM 10^−10M): 25%
- No. of Living Cells ([2]; FDM 10^−10M): 21476
- % Dead Cells ([2]; FDM 10^−12M): 33%
- No. of Living Cells ([2]; FDM 10^−12M): 19250
- Killing evident by LDH release (FIG. 5), in words ([3]; FDM 10^−4M-10^−12M, added four times during 1 hour): kills human Burkitt's B-lymphoma in a dose dependent manner
- Killing evident by LDH release (FIG. 2), in words [4]: kills human T-cell leukemia in a dose dependent manner
- Killing evident by LDH release (FIG. 8), in words [5]: marked death; also recorded: kills human TCR-activated T-cells, in a dose dependent manner
- % Dead Cells ([6]; FDM 10^−4M): 99%
- No. of Living Cells ([6]; FDM 10^−4M): 213
- % Dead Cells ([6]; FDM 10^−6M): 28%
- No. of Living Cells ([6]; FDM 10^−6M): 17023
- No. of Living Cells ([6]; FDM 10^−8M): 16080
- % Dead Cells ([6]; FDM 10^−8M, methanesulfonate): 32%
- % Dead Cells ([6]; FDM 10^−10M): 38%
- No. of Living Cells ([6]; FDM 10^−10M): 14728
- % Dead Cells ([6]; FDM 10^−12M): 46%
- No. of Living Cells ([6]; FDM 10^−12M): 12662
- Killing evident by LDH release (FIG. 3), in words [7]: kills human cutaneous Sezary T-cell lymphoma in a dose dependent manner
- Killing evident by LDH release (FIG. 4), in words [8]: kills human chronic myelogenous leukemia (CML) in a dose dependent manner
- Approximate steady state concentration in the circulation [9]: ~10^−8 M

Structure (SMILES): Oc1ccc(C2CNCCc3c2cc(O)c(O)c3Cl)cc1 (stereo not shown) [Fenoldopam]
- Release of LDH (OD), Average OD ([10]; Fenoldopam 10^−4M 1 Min): 1.081 OD
- Release of LDH (OD), OD Duplicates ([10]; Fenoldopam 10^−4M 1 Min): 1.081 OD
- Release of LDH (OD), Average OD ([10]; Fenoldopam 10^−4M 10 Min): 0.863 OD
- Release of LDH (OD), OD Duplicates ([10]; Fenoldopam 10^−4M 10 Min): 0.868 OD and 0.858 OD
- Release of LDH (OD), Average OD ([10]; Fenoldopam 10^−4M 30 Min): 2.7755 OD
- Release of LDH (OD), OD Duplicates ([10]; Fenoldopam 10^−4M 30 Min): 2.737 OD and 2.814 OD
- Release of LDH (OD), Average OD ([10]; Fenoldopam 10^−4M 60 Min): 2.27 OD
- Release of LDH (OD), OD Duplicates ([10]; Fenoldopam 10^−4M 60 Min): 2.733 OD and 1.807 OD
- Release of LDH (OD), Average OD ([10]; Fenoldopam 10^−5M 60 Min): 2.9645 OD
- Release of LDH (OD), OD Duplicates ([10]; Fenoldopam 10^−5M 60 Min): 2.907 OD and 3.022 OD
- Release of LDH (OD), Average OD ([10]; Fenoldopam 10^−6M 60 Min): 0.7625 OD
- Release of LDH (OD), OD Duplicates ([10]; Fenoldopam 10^−6M 60 Min): 0.759 OD and 0.766 OD
- Release of LDH (OD), Average OD ([11]; Fenoldopam 10^−4M 1 Min): 0.8135 OD
- Release of LDH (OD), OD Duplicates ([11]; Fenoldopam 10^−4M 1 Min): 0.786 OD and 0.841 OD
- Release of LDH (OD), Average OD ([11]; Fenoldopam 10^−4M 10 Min): 1.4355 OD
- Release of LDH (OD), Average OD ([11]; Fenoldopam 10^−4M 30 Min): 3.087 OD
- Release of LDH (OD), OD Duplicates ([11]; Fenoldopam 10^−4M 30 Min): 3.015 OD and 3.159 OD
- Release of LDH (OD), Average OD ([11]; Fenoldopam 10^−4M 60 Min): 2.8775 OD
- Release of LDH (OD), OD Duplicates ([11]; Fenoldopam 10^−4M 60 Min): 2.688 OD and 3.067 OD
- Release of LDH (OD), Average OD ([11]; Fenoldopam 10^−5M 60 Min): 2.9465 OD
- Release of LDH (OD), OD Duplicates ([11]; Fenoldopam 10^−5M 60 Min): 2.907 OD and 3.022 OD
- Release of LDH (OD), Average OD ([11]; Fenoldopam 10^−6M 60 Min): 0.7625 OD
- Release of LDH (OD), OD Duplicates ([11]; Fenoldopam 10^−6M 60 Min): 0.759 OD and 0.766 OD
- LDH Release (OD), Average ([3]; Fenoldopam 10^−4M, 1 hour): 0.9595 OD
- LDH Release (OD), OD Duplicates ([3]; Fenoldopam 10^−4M, 1 hour): 0.961 OD and 0.958 OD
- LDH Release (OD), Average ([3]; Fenoldopam 10^−5M, 1 hour): 1.0025 OD
- LDH Release (OD), OD Duplicates ([3]; Fenoldopam 10^−5M, 1 hour): 0.99 OD and 1.015 OD
- LDH Release (OD), Average ([3]; Fenoldopam 10^−6M, 1 hour): 0.526 OD
- LDH Release (OD), OD Duplicates ([3]; Fenoldopam 10^−6M, 1 hour): 0.525 OD and 0.527 OD
- LDH Release (OD), Average ([3]; Fenoldopam 10^−7M, 1 hour): 0.5365 OD
- LDH Release (OD), OD Duplicates ([3]; Fenoldopam 10^−7M, 1 hour): 0.55 OD and 0.523 OD
- LDH Release (OD), Average ([3]; Fenoldopam 10^−8M, 1 hour): 1.339 OD
- LDH Release (OD), OD Duplicates ([3]; Fenoldopam 10^−8M, 1 hour): 1.316 OD and 1.362 OD
- LDH Release (OD), Average ([3]; Fenoldopam 10^−9M, 1 hour): 0.899 OD
- LDH Release (OD), OD Duplicates ([3]; Fenoldopam 10^−9M, 1 hour): 0.903 OD and 0.895 OD
- Concentration of maximal killing ([3]; LDH release, 1 hour, Table 2): 10^−8 M
- Affinity, in words [12]: moderate affinity
- Affinity, in words [13]: no significant affinity
- Affinity, in words [14]: no significant affinity
- Affinity, in words [15]: no significant affinity
- Affinity, in words [16]: no significant affinity
- Affinity, in words [17]: no significant affinity
- Affinity, in words [18]: no significant affinity
